Test [1] has as its system human mononuclear cells (PBMC) stimulated with staphylococcal enterotoxin B (SEB). Kind of test: cells. It is filed as cell-based.
Test [2] deals with T1, LFA-1 (Homo sapiens, UniProt P20701).
T1 construct: greater than 90% occupancy of LFA-1 with efalizumab led to a greater than 50% clinical improvement in PASI score in a clinical trial; host or cells: leukocytes of psoriasis patients (in vivo)
The following applies: at greater than 90% occupancy of LFA-1; cited from earlier work.

pEC50: −log10 of the molar value. Where two headings read alike, the source gives them in different places. Some results are limits rather than exact numbers.

A word on the pEC50: it is −log10 of the EC50, conventionally taken in molar units.

T1 sequence (P20701 26-1170): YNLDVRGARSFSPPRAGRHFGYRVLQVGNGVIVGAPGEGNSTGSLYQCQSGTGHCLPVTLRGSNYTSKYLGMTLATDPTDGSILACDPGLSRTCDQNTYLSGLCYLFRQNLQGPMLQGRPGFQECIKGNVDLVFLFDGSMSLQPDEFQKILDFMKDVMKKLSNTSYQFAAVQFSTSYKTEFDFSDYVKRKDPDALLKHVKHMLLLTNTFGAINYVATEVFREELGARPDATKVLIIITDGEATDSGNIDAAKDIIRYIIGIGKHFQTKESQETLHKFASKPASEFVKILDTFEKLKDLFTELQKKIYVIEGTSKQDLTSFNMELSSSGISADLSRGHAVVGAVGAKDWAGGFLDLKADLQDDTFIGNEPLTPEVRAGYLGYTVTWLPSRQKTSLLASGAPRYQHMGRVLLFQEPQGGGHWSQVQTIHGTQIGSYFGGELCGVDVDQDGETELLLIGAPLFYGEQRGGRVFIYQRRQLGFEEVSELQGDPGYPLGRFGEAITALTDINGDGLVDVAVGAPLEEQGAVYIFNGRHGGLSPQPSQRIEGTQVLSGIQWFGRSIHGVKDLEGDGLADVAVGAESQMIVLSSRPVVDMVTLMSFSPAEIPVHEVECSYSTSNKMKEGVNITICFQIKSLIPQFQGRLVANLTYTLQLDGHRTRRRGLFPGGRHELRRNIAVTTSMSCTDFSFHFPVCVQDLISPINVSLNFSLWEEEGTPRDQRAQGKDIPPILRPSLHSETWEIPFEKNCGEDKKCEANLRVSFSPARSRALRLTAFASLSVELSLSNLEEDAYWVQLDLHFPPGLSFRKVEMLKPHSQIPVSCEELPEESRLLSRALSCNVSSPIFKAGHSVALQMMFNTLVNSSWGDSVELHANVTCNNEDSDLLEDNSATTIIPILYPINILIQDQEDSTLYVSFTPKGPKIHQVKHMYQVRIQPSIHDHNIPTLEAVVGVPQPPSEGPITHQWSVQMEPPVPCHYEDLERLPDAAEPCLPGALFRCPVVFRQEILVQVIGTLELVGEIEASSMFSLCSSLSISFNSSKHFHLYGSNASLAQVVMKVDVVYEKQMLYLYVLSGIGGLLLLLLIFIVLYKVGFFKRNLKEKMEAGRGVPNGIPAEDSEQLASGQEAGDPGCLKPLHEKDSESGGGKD
T1 sequence (P05107 23-769 partner): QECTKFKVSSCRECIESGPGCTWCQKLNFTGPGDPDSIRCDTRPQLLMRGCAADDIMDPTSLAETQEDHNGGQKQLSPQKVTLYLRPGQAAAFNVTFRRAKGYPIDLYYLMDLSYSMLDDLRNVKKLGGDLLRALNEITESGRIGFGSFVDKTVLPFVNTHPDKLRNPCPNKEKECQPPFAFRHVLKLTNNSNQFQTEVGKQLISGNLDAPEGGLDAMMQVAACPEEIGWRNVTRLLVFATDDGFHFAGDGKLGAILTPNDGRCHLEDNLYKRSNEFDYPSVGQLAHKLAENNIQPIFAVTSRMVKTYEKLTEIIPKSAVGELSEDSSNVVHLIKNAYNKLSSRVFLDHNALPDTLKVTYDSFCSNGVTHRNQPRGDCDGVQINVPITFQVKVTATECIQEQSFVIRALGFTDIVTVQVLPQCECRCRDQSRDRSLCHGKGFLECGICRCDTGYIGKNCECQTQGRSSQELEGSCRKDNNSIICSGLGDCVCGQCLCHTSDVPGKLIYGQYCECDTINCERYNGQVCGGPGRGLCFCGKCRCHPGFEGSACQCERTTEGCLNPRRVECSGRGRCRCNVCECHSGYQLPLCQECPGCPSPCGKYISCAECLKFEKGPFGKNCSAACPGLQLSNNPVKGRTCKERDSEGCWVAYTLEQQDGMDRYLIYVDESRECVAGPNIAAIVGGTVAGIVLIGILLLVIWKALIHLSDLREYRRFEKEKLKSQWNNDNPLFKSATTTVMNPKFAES

As for `O=C(NC(Cc1cc(=O)[nH]c2ccccc12)C(=O)O)c1ccc(Cl)cc1` (centres unmarked) [Rebamipide, reference compound], the pEC50 in test [1] (read-out: EC50 Cytokine Release GM-CSF), in test [1] (read-out: EC50 Cytokine Release IFNγ), in test [1] (read-out: EC50 Cytokine Release IL-1α), in test [1] (read-out: EC50 Cytokine Release IL-1β), in test [1] (read-out: EC50 Cytokine Release IL-2) and in test [1] (read-out: EC50 Cytokine Release IL-3) was < 3.00 throughout. The pEC50 in test [1] (read-out: EC50 Cytokine Release IL-4), in test [1] (read-out: EC50 Cytokine Release IL-5), in test [1] (read-out: EC50 Cytokine Release IL-6), in test [1] (read-out: EC50 Cytokine Release IL-10), in test [1] (read-out: EC50 Cytokine Release IL-12p40) and in test [1] (read-out: EC50 Cytokine Release IL-13) was < 3.00 throughout. Besides, the pEC50 in test [1] (read-out: EC50 Cytokine Release IP-10), in test [1] (read-out: EC50 Cytokine Release MCP-1), in test [1] (read-out: EC50 Cytokine Release MIP-1α) and in test [1] (read-out: EC50 Cytokine Release TNF-α) was < 3.00 each time.
With “efalizumab: antibody binding LFA-1, clinical trial in plaque psoriasis”, the “clinical improvement in PASI score” value in test [2] is recorded as “greater than 50%”.
